The values below come from patent US10143720B2, “Modulation of hepatitis B virus cccDNA transcription” (DREXEL UNIVERSITY, priority 2012, dated 2018).

Each structure is given as a SMILES string. “Also recorded” adds a separate entry of the source. Like-named read-outs stand apart in the source and are kept apart here. Where a SMILES comes first, the peptide text is derived from it. [ ]: non-standard residue; d: D form. β3hL = CC(C)C[C@H](N)CC(=O)O; Nva = CCC[C@H](N)C(=O)O

One series has as its system cccDNA. Particulars: positive drug control; from our screen, Guo 2012; cited from earlier work.
Another series concerns HDAC. Particulars: relative to Apicidin; cited from earlier work.
For another series, the system named is HDAC III. To be noted: cited from earlier work; for HDAC III inhibitor (printed in the HDAC-II inhibitor line): from cited references.
The test system of a further series is HDAC-II. To be noted: cited from earlier work; for HDAC-II inhibitor?: from cited references.
A further series relates to HDAC-I. Particulars: cited from earlier work; for HDAC-I inhibitor?: from cited references; for activity against class I HDACs: in words.
The nature of the next series: Toxicity on dstet5 cells. In kind it is cell-based, chicken. Particulars: chicken; dstet5 cells; concentration that reduces 50% of cell viability.
For series [1], the system named is HBV cccDNA. The series can be described thus: cccDNA-dependent DHBV pgRNA / cccDNA transcription in dstet5 cells. The class given is cell-based. Particulars: for Selectivity Index (SI): CC50 divided by EC50; for cccDNA transcription: Dstet5 cells. The text has this:
Most HBV producing cells lines produce HBV gene products from an HBV transgene integrated into the host chromosome, and thus cccDNA is not the major source of viral product. This makes screening for drugs that target cccDNA difficult. Cell lines were produced in which viral gene products are dependent upon cccDNA. It was established human Hep G2 and chicken hepatoma (LMH)-stable cell lines for this purpose with tetracycline (tet) regulated HBV/DHBV. […] Upon addition of tet back to media to block transgene transcription, and removal of PFA to allow the viral DNA synthesis in the pgRNA-containing capsid to proceed, there is a rapid decline of viral RNA (day 1 and 2), with an eventual increase to a higher level when cccDNA is made after day 3.
With a system and conditions under which viral transcripts are produced in a cccDNA dependent manner (FIGS. 1, 2B), approximately 100 compounds were screened, including those from the inventors' in-house small compound library, those present in the inventors' Natural Products collection, and selected compounds including inhibitors of cellular epigenetic modification enzymes, including HDACs, HATs, Sirtuins, histone methyltransferases, histone demethylases and DNA methyltransferases.

In series [2] the test system is HBV cccDNA. The series can be described thus: HBV cccDNA transcription in HepG2 cells. The class given is cell-based, HBV in human HepG2 cells.
Series [3] concerns DHBV transgene integrated in host cellular chromosome. The series can be described thus: DHBV pgRNA transcription from transgene integrated in host cellular chromosome (FIG. 4). In kind it is cell-based.
For series [4] the following is noted: cited from earlier work.
The subject of the next series is dstet5 cells. The series can be described thus: Toxicity on dstet5 cells. In kind it is cell-based, chicken.
The conditions of series [5]: cited from earlier work. The source holds these as a separate data set.
The subject of another series is DHBV. Kind of series: Duck hepadnavirus efficacy study. In kind it is in vivo, Peking Ducks. Particulars: by 3 weeks of treatment, expected. The text has this: Six-week-old Peking Ducks, chronically infected with DHBV type 16 (Alberta Strain), are used. At 6 weeks, viremia and liver mass in ducks tends to have stabilized. Ducks are given, by either i.m. or oral gavage (depending on Aim 4 PK/TK results), test compound (3 dose groups, with dosing amount and frequency to depend on PK results, but aiming to achieve stable serum levels of at least 10 times the tissue culture IC50). There are three dose groups with 5-6 animals per dose group. Control dose groups (6 animals each group) include placebo treated animals and animals treated with either barraclude (1 mg/kg) or lamivudine (40 mg/kg) per day. At least three animals from all dose groups contribute at least one pre treatment and one post treatment liver biopsy. Treatment is for 10 weeks, since this exceeds the time for lamivudine to suppress viremia to beneath detectable levels and the reported ½ life of cccDNA in the duck. Ducks are followed with weekly serum collections for an additional 4 weeks after withdrawal of drug. Serum will be collected weekly.
Weekly serum is tested for standard “lab values” (hematology, albumin, AST, ALTs, The amount of DHBV viral DNA, sAg, sAb in the circulation is determined. Liver tissue derived from biopsies (some pre treatment and end of treatment from the same animals) is examined for DHBV DNA (cccDNA, replicative forms) and DHBV core (immunostained). […]

A further series has as its system WHV. The series can be described thus: WHV-infected woodchuck study. The class given is in vivo. To be noted: by 10 weeks of treatment, expected. The text has this:
The study uses 10 groups, with 5 animals per group, with drug treatment for 10 weeks followed by 10 weeks off drug (to test durability of affect). Due to variability in the levels of viremia and antigenemia, animals are stratified to groups by WHV viremia and antigenemia levels as determined seven days prior to study start, so that the average levels of both viral markers are evenly distributed among all groups of animals. Animals with abnormally low WHVsAg levels are not used in this study. Compound is administered daily, by a route and frequency to be finalized after bioavailability studies in rodents. The first day of dosing on the study is Study Day 1. Study Day 1 dose levels are calculated on a pretest body weight, and body weights are taken weekly for dose administration. Dosing range is as for the mouse study over four doses, with Group 10 treated with Barraclude as a reference compound (Tennant).
The primary endpoint is a dose dependent reduction in viremia and antigenemia on and off drug achieving durable off drug reductions.
The benchmark of positive activity is LFMAU treated animals.

[6] abbreviates: in Gallus gallus, read-out: HBV cccDNA (EC50, uM).

For `O=C(CN(c1cc(C(F)(F)F)ccc1Cl)S(=O)(=O)c1ccccc1)NCc1ccncc1` [CCC-0975], in the series on cccDNA, the cccDNA formation entry is on record as “inhibits”.
Take `CCC[C@@H]1NC(=O)[C@H](C)NC(=O)C[C@H](CC(C)C)NC(=O)[C@H](Cc2c[nH]c3ccccc23)NC1=O` [analog 2] (cyclo(A[Nva]W[β3hL])): the “anti HDAC potency” value in the series on HDAC is recorded as “without loss of anti HDAC potency”.
The term CC50 denotes the concentration giving 50% cytotoxicity. As usually defined, the EC50 is the concentration giving half of the maximal effect. Take `CN(C)c1ccc(C(=O)NCCCCCCC(=O)NO)cc1` [4-(dimethylamino)-N-[7-(hydroxyamino)-7-oxoheptyl] benzamide]: the “HDAC III inhibitor (printed in the HDAC-II inhibitor line)” value in the series with HDAC III is reported as “HDAC III^7,11”. In addition, in the series with HDAC-II, the “HDAC-II inhibitor?” value is on record as “YES &”. The “HDAC-I inhibitor?” value in the series with HDAC-I is “YES^4,7”. Besides, the CC50 in “Toxicity on dstet5 cells” was more than 100 µM. Also, the “Selectivity Index (SI)” value with HBV cccDNA [1] is given as more than 16. Besides, the EC50 in the series with HBV cccDNA [1] (setting [6]) turned out to be 6.25 µM.
Regarding `CCC(=O)CCCCC[C@@H]1NC(=O)Cn2cc(nn2)[C@H](C(C)CC)NC(=O)[C@H](Cc2c[nH]c3ccccc23)NC1=O` (stereo partly shown) [analog 1], the “anti HDAC potency” value with HDAC is given as “without loss of anti HDAC potency”.
With `CC(/C=C/C(=O)NO)=C\[C@@H](C)C(=O)c1ccc(N(C)C)cc1` [Trichostatin A], the “effect on class III HDACs (sirtuins)” value in the series with HDAC III (in words) was “not affected”. Further, in the series on HDAC-II, the “HDAC-II inhibitor?” value was “YES^4,5,6,9”. Further, in the series on HDAC-II (in words), the “activity against class II HDACs” value is “inhibited”. In the series on HDAC-I, the “HDAC-I inhibitor?” value is “YES^5,6,9” and the “activity against class I HDACs” value is “inhibited”. Also, in the series on HBV cccDNA [2], the “HBV cccDNA transcription” value is “repress” and the cccDNA levels result is listed as “reduced”. In the series “Toxicity on dstet5 cells”, this molecule gave a CC50 of more than 20 µM. In addition, the “DHBV pgRNA transcription from transgene integrated in host cellular chromosome” value in series [3] is recorded as “dose-dependently stimulate”. In addition, the “Selectivity Index (SI)” value in the series on HBV cccDNA [1] is recorded as more than 40. The cccDNA transcription entry with HBV cccDNA [1] (FIG. 3) is “repress”. In addition, in the series with HBV cccDNA [1] (setting [6]), the EC50 is 0.48 µM.
For the molecule `CCC(=O)CCCCC[C@@H]1NC(=O)[C@H]2CCCCN2C(=O)[C@H]([C@@H](C)CC)NC(=O)[C@H](Cc2cn(OC)c3ccccc23)NC1=O` [Apicidin, cyclo(N—O-methyl-L-tryptophanyl-L-isoleucinyl-D-pipecolinyl-L-2-amino-8-oxodecanoyl)], the “half life in vivo” value in [4] is listed as “very poor”. Also, in series [4] (in vivo, po), the oral bioavailability entry is “very poor”. In the series on HDAC-I, the “HDAC-I inhibitor?” value is “YES^4,5” and the “activity against class I HDACs” value is “nanomolar activity; also recorded: efficiently inhibits”. In the series with HBV cccDNA [2], the “HBV cccDNA transcription” value was “repress” and the cccDNA levels result is on record as “reduced”. Further, the toxicity result in the series on dstet5 cells (at up to 20 uM for five days) is “no toxicity”. In the series with dstet5 cells (dstet5 cells, concentration that reduces 50% of cell viability), this molecule yielded a CC50 of more than 20 µM. The aqueous solubility entry in series [5] is recorded as “very poor”. Moreover, in series [3], the “DHBV pgRNA transcription from transgene integrated in host cellular chromosome” value is “dose-dependently stimulate”. For the same molecule, the “activity against the DHBV, in culture” value with HBV cccDNA [1] is “highly active”. Also, the cccDNA transcription result with HBV cccDNA [1] (FIG. 3) is “repress”. Moreover, the half-maximal effective concentration (EC50) with HBV cccDNA [1] (FIG. 3, read-out: inhibition of cccDNA, EC50) is approximately 0.18 µM. Besides, in the series with HBV cccDNA [1] (dstet5 system, concentration that reduces 50% of the HBV specific signal (RNA and/or HBeAg), read-out: HBV cccDNA (EC50)), the concentration giving a half-maximal response (EC50) is 0.183 µM.
For `Cc1cn([C@H]2O[C@@H](CO)[C@H](O)[C@H]2F)c(=O)[nH]c1=O` [LFMAU], the “HBV viremia and antigenemia” value with DHBV was “uniformly lost HBV viremia and even antigenemia”; in the series on WHV, “uniformly lost HBV viremia and even antigenemia”.
Consider `O=C(CCCCCCC(=O)NO)NO` [Suberoyl bis hydroxamic acid (SBHA), Suberoyl bis hydroxamic acid], for which the “HDAC III inhibitor (printed in the HDAC-II inhibitor line)” value in the series on HDAC III is given as “HDAC III^11”. Also, the “HDAC-II inhibitor?” value with HDAC-II is recorded as “YES &”. Also, the “HDAC-I inhibitor?” value in the series with HDAC-I was “YES^4,6,7,10”. This molecule also showed a CC50 in the series “Toxicity on dstet5 cells” of more than 40 µM. In the series on HBV cccDNA [1], the “Selectivity Index (SI)” value is listed as more than 16. Besides, the EC50 in the series with HBV cccDNA [1] (setting [6]) turned out to be 2.5 µM.
